Earlier results as cited in EP1288303A1, “Inducible expression systems employing PPAR transcriptional activators” (Aventis Pharma S.A., priority 2001, dated 2003).

Conditions: form not soluble in water; doses between 5 and 50 mg/kg, for example 30 mg/kg

plasma concentration: about 15 µg/ml
Compound: CN(CCOc1ccc(CC2SC(=O)NC2=O)cc1)c1ccccn1 (stereo not shown) [BRL49653, rosiglitazone]
